“And” between values parts separate entries of the source, which are not always exact repeats. Equal values may be shown once. Read-outs that look alike come from different tables or passages of the source.
How the values were obtained:
[1] = 13 and 14, at 21° C., cited from earlier work
[2] = 13 and 14; cited from earlier work
[3] = 13 and 14; at 21° C.; cited from earlier work
[4] = Sensor calibration for CO2, constants from theoretical fit (indicator in sensor); type: physicochemical; details: sensor (at 12° C.) (calculated)
Description: The calibration and operation of the sensor operation of the sensor is based on the Severinghaus electrode principle. When carbon dioxide crosses the membrane, the pH of the indicator solution is given by the Henderson-Hasselbach equation: [formula]
where aT =KH KM pCO2 KH /mol dm^3 atm^-1 is Henry's constant and KM is the membrane constant. Substituting Equation 7 into Equation 5 and rearranging gives: [formula]
The dissolved CO2 concentration was determined using Henry's constant [Cox, J. D., Head A. J. J Chem. Soc. Faraday Trans., 1962, 58, 1839]. […] Also, for this calculation the membrane volume was not corrected for the porosity, or water content, of the membrane. These parameters would have opposite effects. In the calibration, aT was assumed to equal the dissolved CO2 in the bulk solution, such that KM =1. The sensitivity of the sensor is approximately ±1 ppm.
The theoretical equation relating the fluorescence intensity. ratio to pCO2 was compared to test date and is shown by the solid curve in FIG. 6. The pHo value was calculated from Equation 5 using pKin while Io was derived from the above analysis. There was good agreement between experimental and theoretically-derived data.

[5] = Absorbance/emission spectra of carboxy-SNAFL-1 (excitation at 488 nm); type: physicochemical; details: for Emission (Ex. = 488 nm) (acid): acid form; for Emission (Ex. = 488 nm) (acid) / Emission (Ex. = 488 nm) (base) / Emission (Ex. = 488 nm) (isos): at 21° C.; for Emission (Ex. = 488 nm) (base): base form; for Emission (Ex. = 488 nm) (isos): isosbestic
Description: These peaks are centered at 540 nm and 620 nm and result from the protonated and deprotonated forms of the dyes respectively. This dual wavelength feature of the dye makes it particularly suitable for use in a ratiometric mode which accounts for system instabilities, such as photobleaching and lamp intensity fluctuations. This dye also has an isosbestic point at 625 run (Ex.=488 nm) which can be used for ratiometric measurements to assess the extent of dye photobleaching over time.
The maxima centered at 540 nm and 620 nm arise from the protonated and deprotonated forms of the dye respectively. [drawing 3]
The measurement system 100 comprises a Spectra Physics Model 162A-04 argon-ion laser 105 which provides excitation light radiation, typically at 488 nm. The excitation light is passed through a neutral density filter 110 and an angled dichroic mirror 115 to the proximal end 120 of an optical fiber 125 which conveys the excitation light to the distal end 130 of the fiber 125 and illuminates an optical interrogation zone 135 comprising a fluid sample volume with an indicator dye and analyte. In the presence of the analyte, the excitation light causes the indicator dye to emit emitted light energy in the optical interrogation zone 135, which emitted light is conveyed by the fiber 125 to the proximal end 120 and is deflected through 90° by the front surface 116 of the angled dichroic mirror 115. The emitted light is then focussed with lenses 145, filtered through a long wavelength, band-pass filter 150, and passed through a slit 155 into a monochromater 160. The resulting wavelength-dispersed signal is measured with a Pacific Instruments Model 126. photo-counting detection system. The intensity of the excitation light is measured in photon counts per second as either a function of time or of wavelength examined.

[6] = Fluorescence emission pH titration of carboxy-SNAFL-1 (curve fits for Io, pKin and B); type: physicochemical; details: for I(543/623) (max) / I(543/623) (min) / pKin: at 21° C.
Description: Where the fluorescence intensity I=dh and I0 =dhT, the fluorescence intensity when the indicator is fully undissociated, Equation 4 becomes: [formula]
In this equation the additional term B is the background fluorescence of the system and is an experimentally-derived value. I can also be the ratio of the fluorescence intensities of the protonated and isosbestic forms, where. I=I545 /Iisos
The titration curves are shown for carboxy-SNAFL-1in distilled water and in a 0.67 M solution of NaCl. The solid lines are the theoretical curve fits using Equation 6. […] Experiments were carried out in 0.67 M NaCl because it is necessary to balance the osmotic pressure of the indicator solution in the sensor to that of the test solution. The osmotic pressure of the seawater is equivalent to 0.67 M NaCI.
The solid lines in FIG. 2 are theoretical fits of Equation 5. The results for Io, pKin, and B are summarized in Table 2 together with typical values reported elsewhere [Walt, D. R, Gabor, G., Goyet, C. Anal. Chim. Actca 1993, 274, 47; DeGrandpre, M. D., Anal. Chem. 1993, 65 (4), 331; Whitaker, J. E., Haugland, R. P., Prendergast, R P. Anal. Biochem. 1991, 194, 330].

[7] = distilled water (25° C.), 488 nm excitation

5' (and 6')-carboxyseminaphthofluorescein [carboxy-SNAFL-1]
Absorbance (acid) ([1]; acid form): 481 nm and 510 nm | Emission (Ex. = 488 nm) (acid) ([1]; acid form): 542 nm | Absorbance (base) ([1]; base form): 539 nm | Emission (Ex. = 488 nm) (base) ([1]; base form): 623 nm | Emission (Ex. = 488 nm) (isos) ([1]; isosbestic): 615 nm | ΔH° [2]: 3.78 kcal/mol | ΔS° [2]: -22.6 cal mol^-1 K^-1 | ΔpH/ΔT [2]: 0.0192 ° C.^-1 | I(543/623) (max) [3]: 6.13 | I(543/623) (min) [3]: 0.09 | pKin [3]: 7.75 | I(543/623) (max) [4]: 5.54 | pKin [4]: 7.98 | Emission (Ex. = 488 nm) (acid) ([4]; acid form): 545 nm | Emission (Ex. = 488 nm) (base) ([4]; base form): 610 nm | isosbestic point ([5]; Ex.=488 nm): 625 nm | emission maximum, deprotonated form [5, 7]: 620 nm | emission maximum, protonated form [5, 7]: 540 nm | emission peak, deprotonated form ([5]; excited at 488 nm): 620 nm | emission peak, protonated form ([5]; excited at 488 nm): 540 nm | Emission (Ex. = 488 nm) (acid) ([5]; in 0.67M NaCl): 542 nm | Emission (Ex. = 488 nm) (base) ([5]; in 0.67M NaCl): 620 nm | Emission (Ex. = 488 nm) (isos) ([5]; in 0.67M NaCl): 624 nm | Emission (Ex. = 488 nm) (acid) ([5]; in H2O): 545 nm | Emission (Ex. = 488 nm) (base) ([5]; in H2O): 618 nm | Emission (Ex. = 488 nm) (isos) ([5]; in H2O): 632 nm | effect of increasing ionic strength on maximum fluorescence intensity ([6]; distilled water vs 0.67 M NaCl): decreases with increasing ionic strength | effect of increasing ionic strength on pKin ([6]; distilled water vs 0.67 M NaCl): decreases pKin | I(543/623) (max) ([6]; in 0.67M NaCl): 5.27 | I(543/623) (min) ([6]; in 0.67M NaCl): 0.129 | pKin ([6]; in 0.67M NaCl): 7.67 | I(543/623) (max) ([6]; in H2O): 5.41 | I(543/623) (min) ([6]; in H2O): 0.145 | pKin ([6]; in H2O): 8.01
